In US11819537B2, “Preventive or therapeutic method for inflammatory skin disease” (Osaka University, priority 2016, dated 2023):

Tests used:
[1] = system: TLR7/8 signals (THP-1 cells); assay: IL-6 secretion from macrophage cells stimulated with R848 (Example 3); type: cell-based, human; conditions: for TLR7/8 signal suppression effects, MHP1 compared with hMHP4: 30.5 μM each; for TLR7/8 signal suppression effects, MHP1 compared with hMHP4 / increase in the amount of IL-6 secretion by R848: FIG. 6; for TLR7/8 signals / increase in the amount of IL-6 secretion by R848: R848 10 μg/ml; for TLR7/8 signals: conclusion from FIG. 6; for increase in the amount of IL-6 secretion by R848: peptide 30.5 μM, 24 hours, ELISA
Description: The influence of the RANKL peptide on the amount of proinflammatory cytokines (IL-6) secreted from macrophage cells by the stimulation of a TLR7/8 ligand (R848) was examined. The specific examination procedures were as follows.
THP-1 cells (human-derived macrophage cell line) were cultured in a DMEM medium (+4% FBS) containing MHP1 or hMHP4 (final concentration: 30.5 μM) and R848 (final concentration: 10 μg/ml) or a DMEM medium (+4% FBS) containing R848 (final concentration: 10 μg/ml) alone for 24 hours by a standard method. After culturing, the concentration of IL-6 in the medium was measured by the ELISA method.

[2] = system: psoriatic symptoms caused by the administration of imiquimod (IMQ); assay: Imiquimod-induced psoriatic symptoms in mice, MHP4 hydrophilic petrolatum ointment (Example 8); type: in vivo; conditions: MHP4 hydrophilic petrolatum ointment 375 ng/15 mg per mouse applied every day; 5% imiquimod; BALB/c male mice; FIGS. 11 to 14
Description: Specifically, the following procedure was performed according to the dosing schedule shown in FIG. 1 except that the first application of an ointment was performed 6 hours after the first imiquimod application. In Example 1, the RANKL peptide aqueous solution was administered, while a RANKL peptide ointment was administered in this example. As test animals, BALB/c 9-week-old male mice whose back hair was partially removed were prepared. 5% imiquimod (IMQ) was applied to the hair-removed portion in the back and ear of each mouse (62.5 mg per mouse) (day 0 (0 d)). 6 hours later, (1) an MHP4 hydrophilic petrolatum ointment (375 ng (MHP4)/15 mg (hydrophilic petrolatum) per mouse, n=2), hydrophilic petrolatum (control (untreated), n=2), or MCT/BBP (Marduox (tradename) ointment) (15 mg per mouse, n=2) was individually applied to the back and ear. Thereafter, imiquimod and item (1) above were applied every day (from day 1 (1 d)). […] The degree of redness in the back, the degree of white scaling in the back, and the degree of skin thickening in the back were quantified according to the description in the document (van der Fits, L. et al. Imiquimod-induced psoriasis-like skin inflammation in mice is mediated via the IL-23/IL-17 axis. J. Immunol. 182, 5836-45 (2009) (evaluation criteria: none (0), mild (1), moderate (2), severe (3), and very severe (4)). FIGS. 12 to 14 show the results.

[3] = system: TLR7/8 signals (MG6 cells); assay: Proinflammatory cytokine secretion from microglial cells stimulated with R848 (Example 2); type: cell-based, mouse; conditions: R848 1 μg/ml; for increase in the amount of IL-6 secretion by R848: MHP4 7.6, 15.3 or 30.5 μM, FIG. 5a, 5c; for TLR7/8 signals: conclusion from FIG. 5
Description: The influence of the RANKL peptide on the amount of proinflammatory cytokines (IL-6 and TFNα) secreted from microglial cells by the stimulation of imidazoquinoline resiquimod (R848 produced by Invitrogen), which is a TLR7/8 ligand, was examined. The specific examination procedures were as follows.
MG6 cells (mouse-derived microglial cell line) were cultured in a DMEM medium (+4% FBS) containing MHP1 or MHP4 (final concentration: 7.6, 15.3, or 30.5 μM) and R848 (final concentration: 1 μg/ml) or a DMEM medium (+4% FBS) containing R848 (final concentration: 1 μg/ml) alone for 24 hours by a standard method. After culturing, the concentrations of IL-6 and TNFα in the medium were measured by the ELISA method. In the Examples of the present application, the ELISA method was performed using a kit (Quantikine ELISA Mouse TNF-a or Quantikine ELISA Mouse IL-6, produced by R&D Systems).

MG6 cells = assay: Stability of RANKL peptide: cytokine secretion inhibition in LPS-stimulated MG6 cells after storage (Example 7); type: cell-based, mouse
Description: The stability of the RANKL peptide was examined. The specific examination procedures were as follows.
MHP1 was dissolved in water to a concentration of 2 mg/ml, and stored at 4° C. for 208 days. Thereafter, MG6 cells (mouse-derived microglial cell line) were cultured in a DMEM medium (+4% FBS) containing MHP1 (final concentration: 100 μg/ml) and LPS (final concentration: 2 ng/ml) for 24 hours by a standard method. After culturing, the concentrations of IL-6 and TNFα in the medium were measured by the ELISA method.

NFATc1 and ACP5 mRNA = assay: Osteoclast-related mRNA expression in RAW264.7 cells, real-time RT-PCR (Example 5); type: cell-based; conditions: MHP1 100 μg/ml, collected after 3 days, FIG. 8A, 8B
Description: (§1) It has recently been reported that the administration of RANKL protein to mice induces the activation of osteoclasts. Accordingly, the influence of the RANKL peptide on osteoclasts was examined. The specific examination procedures were as follows.
(§2) MHP1 (final concentration: 100 μg/ml) or RANKL protein (final concentration: 10 ng/ml) was added to a medium (DMEM medium (+4% FBS)) in which RAW264.7 cells were cultured, and the cells were collected after 10 minutes and 3 days.
(§3) For the samples collected after 10 minutes, nuclear proteins of the cells were extracted using the Nuclear Extract Kit (Active Motif), and the degree of NFκB (p65) activation was measured by the TransAM NFkB p65 Kit (Active Motif). On the other hand, for the samples collected after 3 days, the mRNA expression levels of NFATc1 and ACP5 were analyzed by real-time RT-PCR.

[4] = system: osteoclast precursor cells; assay: Osteoclast differentiation, Osteoclast Culture Kit V-2, TRAP staining (Example 6); type: cell-based; conditions: 7 days
Description: Osteoclast Culture Kit V-2 (OSC33, produced by Cosmo Bio Co., Ltd.) was used. According to the manual of the kit, the culturing of osteoclast precursor cells was started in the presence of M-CSF (final concentration: 50 ng/ml) in the A and B groups, and in the presence of M-CSF (final concentration: 50 ng/ml) and MHP1 (final concentration: 30, 50, or 100 μg/ml) in the C and D groups. Thereafter, 24 hours to 7 days after the start of culturing, the A group was cultured in the presence of M-CSF (final concentration: 50 ng/ml), the B group was cultured in the presence of M-CSF (final concentration: 50 ng/ml) and RANKL protein (final concentration: 50 ng/ml), the C group was cultured in the presence of M-CSF (final concentration: 50 ng/ml) and MHP1 (final concentration: 30, 50, or 100 μg/ml), and the D group was cultured in the presence of M-CSF (final concentration: 50 ng/ml), RANKL protein (final concentration: 50 ng/ml), and MHP1 (final concentration: 30, 50, or 100 μg/ml). After culturing, the cells were subjected to TRAP staining and nuclear staining according to a standard method.

NFκB (p65) = NFκB (p65) activation in RAW264.7 cells, TransAM NFkB p65 Kit (Example 5); type: cell-based; conditions: MHP1 100 μg/ml, collected after 10 minutes, FIG. 8C
Description: as §1, §2, §3

[5] = system: psoriatic symptoms caused by the administration of imiquimod (IMQ); assay: Imiquimod-induced psoriatic symptoms in mice, MHP1 aqueous solution (Example 1); type: in vivo; conditions: MHP1 aqueous solution 200 μg/100 μL per mouse applied to back and ear every day; 5% imiquimod; BALB/c female mice; FIGS. 2 to 4
Description: As test animals, BALB/c 6-week-old female mice whose back hair was partially removed were prepared. 5% imiquimod (IMQ) was applied to the hair-removed portion in the back and ear of each mouse (62.5 mg per mouse) (day 0 (0 d)). One day later, (1) an MHP1 aqueous solution (200 μg/100 μL per mouse, n=2) or dH2O (control, n=2) was individually applied to the back and ear, followed by the application of (2) 5% imiquimod (IMQ) (62.5 mg per mouse (day 1 (1 d)). Thereafter, items (1) and (2) above were applied every day for 5 days (day 2 to 6 (2 d to 6 d)).
The degree of white scaling in the back was quantified in accordance with the description of the document (van der Fits, L. et al. Imiquimod-induced psoriasis-like skin inflammation in mice is mediated via the IL-23/IL-17 axis. J. Immunol. 182, 5836-45 (2009)) (evaluation criteria: none (0), mild (1), moderate (2), severe (3), and very severe (4)).
Additionally, the ear thickness was measured.

| Sequence | TLR7/8 signal suppression effects, MHP1 compared with hMHP4 [1] | TLR7/8 signals [1] | increase in the amount of IL-6 secretion by R848 [1] | psoriasis symptoms (back photographs, degree of redness, white scaling, skin thickening) [2] | increase in the amount of IL-6 secretion by R848 ([3]; MHP1 30.5 μM, 24 hours, ELISA) | TLR7/8 signals [3] | stability (MG6 cells; 2 mg/ml in water, 4° C., 208 days) | proinflammatory cytokine (IL-6, TNFα) secretion-inhibiting effect after long-term storage (MG6 cells; MHP1 2 mg/ml in water stored at 4° C. for 208 days, then 100 μg/ml with LPS 2 ng/ml, MG6 cells, 24 hours, FIG. 10) | expression of osteoclast-related mRNA (NFATc1, ACP5) (NFATc1 and ACP5 mRNA) | differentiation of osteoclasts when MHP1 was added (without RANKL protein) ([4]; M-CSF 50 ng/ml and MHP1 30, 50 or 100 μg/ml, TRAP and nuclear staining, FIG. 9 (b)) | differentiation of osteoclasts promoted by RANKL ([4]; M-CSF 50 ng/ml, RANKL protein 50 ng/ml and MHP1 30, 50 or 100 μg/ml, TRAP staining, FIG. 9 (a)) | NFκB (p65) activation (NFκB (p65)) | increase in the amount of TNFα secretion by R848 ([3]; MHP1 30.5 μM, 24 hours, ELISA, FIG. 5b) | psoriatic symptoms (back photographs, degree of white scaling, ear thickness) [5] |
| --- | --- | --- | --- | --- | --- | --- | --- | --- | --- | --- | --- | --- | --- | --- |
| LMVYVTKTSIKIPSS (listed as Homo sapiens) [hMHP4] | similar | suppressed the TLR7/8 signals | suppressed | – | – | – | – | – | – | – | – | – | – | – |
| LMVYVVKTSIKIPSS (listed as Mus musculus) [MHP4] | – | – | – | improved psoriasis symptoms | suppressed | suppressed the TLR7/8 signals | – | – | – | – | – | – | – | – |
| LMVYVVKTSIKIPSSHNLMKGGSTKNWSGN (listed as Mus musculus) [MHP1] | similar | suppressed the TLR7/8 signals | suppressed | – | suppressed | suppressed the TLR7/8 signals | high | in the same manner as MHP1 before storage | did not promote | did not occur | inhibited | slightly activated | suppressed | improved psoriatic symptoms |
